Source: patent US4127720A, “Pyrimido[2,1-a]isoquinoline derivatives having antiallergy activity” (priority 1977, dated 1978)
Read-outs that look alike come from different tables or passages of the source.

Tests used:
[1] = cited from earlier work
[2] = tested on: release of mediators, e.g. histamine and SRS-A; details: administered to asthmatic patients prior to inhalation of specific antigens; cited from earlier work
[3] = tested on: reagin-mediated rat Passive Cutaneous Anaphylaxis (PCA); assay: Reagin-mediated rat Passive Cutaneous Anaphylaxis (PCA) screening test; format: in vivo, Sprague-Dawley rats
Method: The reagin-mediated rat Passive Cutaneous Anaphylaxis (PCA) screening test used to evaluate the present compounds is generally regarded as one of the best animal models for use in predicting the antiallergy activity of test compounds in man. Briefly, the method consists of passive sensitization of skin sites on the test animals with reaginic antibodies followed after 24 hours by administration of the test drug and antigen challenge. The allergic response is measured by use of Evans' blue dye and is evaluated by the spot diameter at the injection side. Details of the test are provided below.
A substituted ovalbumin antigen is used both as immunogen and challenging antigen. The antigen is prepared as follows: 500 mg. ovalbumin (EA) and 500 mg. K2 CO3 are dissolved in 25 ml. distilled H2 O and stirred at room temperature for 5 minutes. Five hundred (500) mg. dinitrobenzene sulfonic acid, Na^+ salt, (previously recrystallized from hot absolute ethanol) is then added slowly with continued stirring. The reaction mixture is then immediately placed in the dark and allowed to proceed for 2 hours with constant stirring. After 2 hours the mixture is placed in suitable dialysis tubing and dialyzed against 5 changes (4 liters each) of distilled H2 O at 5° C. After dialysis the product is lyophilized and stored at room temperature in a brown or amber container. The antigen obtained will appear as a light yellow, amorphous solid which is very soluble in water or saline. It is designated as DNP denatured ovalbumin (DNP-d EA).
Adult, male Sprague-Dawley rats are used as a source or reagin-rich antisera for the PCA model. Immunization is by a combination of DNP-d EA on Al(OH)3 gel and B. pertussis vaccine. Preparation of the DNP-d EA - gel immunogen is as follows: Dissolve the DNP-d EA in TBS so as to give a concentration of 10 mg./ml. Slowly add 1 ml. of this solution to 10 ml. Al(OH)3 gel (10 mg. solids/ml.) with constant stirring at room temperature. Stir the mixture an additional 30 minutes to insure a uniform adsorption of antigen on gel.
The resulting preparation is then used in combination with phase I B. pertussis vaccine to immunize male S/D rats as follows: For each rat administer 0.1 ml. DNP-d EA - gel suspension intramuscularly in each hind leg (200 μg DNP-d EA and 2 mg. gel total dose). Follow these injections by the intraperitoneal administration of 1.0 ml. B. pertussis vaccine (10-20 × 10^9 organisms). The use of light ether anesthesia during this procedure is recommended to insure proper intramuscular and intraperitoneal injections. Nine days following immunization (but no longer than 10) the animals are exsanguinated by cardiac puncture or abdominal aorta cannulation under ether or pentobarbital anesthesia. The collected whole blood is allowed to clot, the serum separated by centrifugation and the individual serum samples stored frozen until assayed for IgE content.
Individual serum samples should be screened for reaginic antibody concentration before being pooled with other sera, as not all rats respond to immunization procedures with reagin production. A 1:50 saline dilution of serum from each immunized rat is used for this purpose. Intradermal injections of 0.05 ml. of the diluted sera are made in the shaven backs of two small female recipient rats, 100-120 gms. Several serum samples can be tested simultaneously in recipient animals. After a 24 to 48 hour latent period antigen challenge is accomplished by intravenous administration to each rat of 1 mg. DNP-d EA in 0.5 ml. 0.5% Evans' blue dye in saline. Sera which show positive PCA reactions at the 1:50 dilution, as measured 20 to 30 minutes post-challenge are pooled, dispensed in small aliquots and stored at -70° C. or lower until used. Negative sera may be discarded.
The IgE titer of the antisera pool should then be determined. […]

[4] = iv, 1-5 minutes prior to antigen challenge (DSCG: at the time of antigen challenge), read-out: Rat PCA Test ID50, i.v. (dose of compound that inhibits 50% of the response)
[5] = po, 10 minutes prior to antigen challenge, Table II and its footnote, read-out: Rat PCA Test ID50, p.o. (dose of compound that inhibits 50% of the response)
[6] = po, 10 minutes prior to antigen challenge, Table 1, read-out: Rat PCA Test ID50, p.o. (dose of compound that inhibits 50% of the response)

## O=C(O)c1cc(=O)c2c(OCC(O)COc3cccc4oc(C(=O)O)cc(=O)c34)cccc2o1 [DSCG, disodium cromoglycate, reference compound]
[1]
  oral absorption: not orally absorbed
[2]
  inhibition of release of mediators, e.g. histamine and SRS-A: inhibits the release of mediators
[3]; [4]
  ED50: 0.6 mg/kg
[3]; [5]
  ED50: > 30 mg/kg
[3]; po, DSCG dosed 30 minutes prior to challenge, Table 1, read-out: Rat PCA Test ID50, p.o. (DSCG)
  ED50: > 30 mg/kg

## CC(C)C(=O)Oc1ccc2c(c1)-c1ncc(C(=O)O)c(=O)n1CC2 [Example 21, 10-Isobutyryloxy-6,7-dihydro-4-oxo-4H-pyrimido[2,1-a]isoquinoline-3-carboxylic Acid]
[3]; [6]
  ED50: ~0.5 mg/kg

## COc1cc2c(cc1OC)-c1ncc(-c3nnn[nH]3)c(=O)n1CC2 [Example 24, 6,7-Dihydro-9,10-dimethoxy-3-(1H-tetrazol-5-yl)-4H-pyrimido[2,1-a]isoquinol-4-one]
[3]; [6]
  ED50: ~0.03 mg/kg

## CCc1cn2c(=O)c(-c3nnn[nH]3)cnc2c2ccccc12 [Example 25, 7-Ethyl-3-(1H-tetrazol-5-yl)-4H-pyrimido[2,1-a]isoquinol-4-one]
[3]; [4]
  ED50: 0.009 mg/kg
[3]; [5]
  ED50: 0.04 mg/kg
